Assay results from patent US20220281825A1 (priority 2016, published 2022).

Columns and labels:
LASV-p = assay: organism not typed; assay type: cell-based, Lassa (LASV); conditions: Vero, 24 h, read-out: LASV-p EC50 (nM)
MACV-p = assay: organism not typed; assay type: cell-based, Machupo (MACV); conditions: Vero, 24 h, read-out: MACV-p EC50 (nM)
JUNV-p = assay: organism not typed; assay type: cell-based, Junin (JUNV); conditions: Vero, 24 h, read-out: JUNV-p EC50 (nM)
TCRV-p = assay: organism not typed; assay type: cell-based; conditions: Vero, 24 h, read-out: TCRV-p EC50 (nM)
in vitro = conditions: African green monkey

`COc1ccc(-n2cnc3ccc(-c4cccc(C(C)C)c4)cc32)cc1` [Example A1, 1-(4-Methoxyphenyl)-6-[3-(propan-2-yl)phenyl]-1H-1,3-benzodiazole] gave an EC50 (LASV-p) of 31.7 nM, an EC50 (MACV-p) of over 100 nM and an EC50 (JUNV-p) of over 100 nM. The EC50 (TCRV-p) was over 100 nM and the CC50 (in vitro) was 12900 nM.
`COc1ccc(-n2cnc3ccc(-c4ccc(C(C)C)cc4)cc32)cc1` [Example A2, 1-(4-methoxyphenyl)-6-[4-(propan-2-yl)phenyl]-1H-1,3-benzodiazole] gave an EC50 (LASV-p) of 6.6 nM, an EC50 (MACV-p) of over 100 nM and an EC50 (JUNV-p) of over 100 nM. It also gave an EC50 (TCRV-p) of over 100 nM and a CC50 (in vitro) of 25600 nM.
`COc1ccc(-c2ccc3ncn(-c4ccc(OC)cc4)c3c2)cc1` [Example A3, 1,6-bis(4-methoxyphenyl)-1H-1,3-benzodiazole] showed an EC50 (LASV-p) of 7.6 nM, an EC50 (MACV-p) of over 25 nM and an EC50 (JUNV-p) of over 25 nM. For the same compound, the EC50 (TCRV-p) was over 25 nM and the CC50 (in vitro) was under 300 nM.
Work on `COc1ccc(-n2cnc3ccc(-c4ccc(C#N)cc4)cc32)cc1` [Example A4, 4-[1-(4-methoxyphenyl)-1H-1,3-benzodiazol-6-yl]benzonitrile] yielded an EC50 (LASV-p) of over 25 nM, an EC50 (MACV-p) of over 25 nM and an EC50 (JUNV-p) of over 25 nM. It also gave an EC50 (TCRV-p) of over 25 nM and a CC50 (in vitro) of under 300 nM.
With `COc1ccc(-n2cnc3ccc(-c4ccccc4OC)cc32)cc1` [Example A5, 6-(2-methoxyphenyl)-1-(4-methoxyphenyl)-1H-1,3-benzodiazole] the EC50 (LASV-p) was over 25 nM, the EC50 (MACV-p) was over 25 nM and the EC50 (JUNV-p) was over 25 nM. For the same compound, the EC50 (TCRV-p) was over 25 nM and the CC50 (in vitro) was under 300 nM.
`COc1ccc(-n2cnc3ccc(-c4cccc(OC)c4)cc32)cc1` [Example A6, 6-(3-methoxyphenyl)-1-(4-methoxyphenyl)-1H-1,3-benzodiazole] showed an EC50 (LASV-p) of over 25 nM, an EC50 (MACV-p) of over 25 nM and an EC50 (JUNV-p) of over 25 nM. It also gave an EC50 (TCRV-p) of over 25 nM and a CC50 (in vitro) of 9720 nM.
With `COc1ccc(-n2cnc3ccc(Cc4ccc(C)cc4)cc32)cc1` [Example A9, 1-(4-methoxyphenyl)-6-[(4-methylphenyl)methyl]-1H-1,3-benzodiazole] the EC50 (LASV-p) was over 100 nM.
Compound `COc1ccc(-n2cnc3ccc(-c4ccc(S(C)(=O)=O)cc4)cc32)cc1` [Example A11, 6-(4-methanesulfonylphenyl)-1-(4-methoxyphenyl)-1H-1,3-benzodiazole] has an EC50 (LASV-p) of over 25 nM, an EC50 (MACV-p) of over 25 nM and an EC50 (JUNV-p) of over 25 nM. The EC50 (TCRV-p) was over 25 nM.
Work on `COc1ccc(-n2cnc3c(-c4ccc(C(C)C)cc4)cccc32)cc1` [Example A19, 1-(4-methoxyphenyl)-4-[4-(propan-2-yl)phenyl]-1H-1,3-benzodiazole] yielded an EC50 (LASV-p) of over 100 nM.
`COc1ccc(-n2cnc3c(-c4cccc(C(C)C)c4)cccc32)cc1` [Example A20, 1-(4-methoxyphenyl)-4-[3-(propan-2-yl)phenyl]-1H-1,3-benzodiazole] gave an EC50 (LASV-p) of over 100 nM.
Compound `COc1ccccc1-n1cnc2ccc(-c3ccc(C(C)(C)O)cc3)cc21` [Example A22, 2-{4-[1-(2-methoxyphenyl)-1H-1,3-benzodiazol-6-yl]phenyl}propan-2-ol] has an EC50 (LASV-p) of over 25 nM, an EC50 (MACV-p) of over 25 nM and an EC50 (JUNV-p) of over 25 nM. For the same compound, the EC50 (TCRV-p) was over 25 nM.
For `COc1cccc(-n2cnc3ccc(-c4ccc(C(C)(C)O)cc4)cc32)c1` [Example A23, 2-{4-[1-(3-methoxyphenyl)-1H-1,3-benzodiazol-6-yl]phenyl}propan-2-ol], the EC50 (LASV-p) was over 25 nM, the EC50 (MACV-p) was over 25 nM and the EC50 (JUNV-p) was over 25 nM. For the same compound, the EC50 (TCRV-p) was over 25 nM.
Work on `CC(=O)c1ccc(-c2ccc3ncn(-c4ccc5[nH]ccc5c4)c3c2)cc1` [Example A28, 1-{4-[1-(1H-indol-5-yl)-1H-1,3-benzodiazol-6-yl]phenyl}ethan-1-one] yielded an EC50 (LASV-p) of 11 nM, an EC50 (MACV-p) of over 25 nM and an EC50 (JUNV-p) of 7.29 nM. The EC50 (TCRV-p) was over 25 nM.
For `c1cc2cc(-c3ccc4ncn(-c5ccc6[nH]ccc6c5)c4c3)ccc2[nH]1` [Example A29, 1,6-bis(1H-indol-5-yl)-1H-1,3-benzodiazole], the EC50 (LASV-p) was 0.53 nM, the EC50 (MACV-p) was 11.1 nM and the EC50 (JUNV-p) was 6.96 nM. It also gave an EC50 (TCRV-p) of 15.2 nM.
In the case of `CC(C)Oc1ccc(-n2cnc3cnc(-c4ccc(C(C)(C)O)cc4)cc32)cc1` [Example B5, 2-(4-{1-[4-(propan-2-yloxy)phenyl]-1H-imidazo[4,5-c]pyridin-6-yl}phenyl)propan-2-ol], the EC50 (LASV-p) is reported as over 25 nM, the EC50 (MACV-p) is reported as over 25 nM and the EC50 (JUNV-p) is reported as 13.4 nM. It also gave an EC50 (TCRV-p) of over 25 nM.
In the case of `CC(=O)c1ccc(-c2cc3c(cn2)ncn3-c2ccc(OC(C)C)cc2)cc1` [Example B8, 1-(4-{1-[4-(propan-2-yloxy)phenyl]-1H-imidazo[4,5-c]pyridin-6-yl}phenyl)ethan-1-one], the EC50 (LASV-p) is reported as over 25 nM, the EC50 (MACV-p) is reported as over 25 nM and the EC50 (JUNV-p) is reported as over 25 nM. The EC50 (TCRV-p) was over 25 nM.
Work on `CC(C)Oc1ccc(-c2cnc3ccc(-c4ccc(N)nc4)cn23)cc1` [Example C14, 5-{3-[4-(propan-2-yloxy)phenyl]imidazo[1,2-a]pyridin-6-yl}pyridin-2-amine] yielded an EC50 (LASV-p) of over 25 nM, an EC50 (MACV-p) of over 25 nM and an EC50 (JUNV-p) of over 25 nM. For the same compound, the EC50 (TCRV-p) was over 25 nM.
Work on `CC(C)Oc1ccc(-c2cnc3ccc(-c4ccc(C(N)=O)cc4)cn23)cc1` [Example C16, 4-{3-[4-(propan-2-yloxy)phenyl]imidazo[1,2-a]pyridin-6-yl}benzamide] yielded an EC50 (LASV-p) of over 25 nM, an EC50 (MACV-p) of over 25 nM and an EC50 (JUNV-p) of over 25 nM. The EC50 (TCRV-p) was over 25 nM.
Work on `CC(C)Oc1ccc(-c2cnc3ccc(-c4ccc(OC(C)C)cc4F)cn23)cc1` [Example C23, 6-[2-fluoro-4-(propan-2-yloxy)phenyl]-3-[4-(propan-2-yloxy)phenyl]imidazo[1,2-a]pyridine] yielded an EC50 (LASV-p) of over 25 nM, an EC50 (MACV-p) of over 25 nM and an EC50 (JUNV-p) of over 25 nM. The EC50 (TCRV-p) was over 25 nM.
With `CC(C)Oc1ccc(-c2cnc3ccc(-c4ccc(OCCN5CCOCC5)cc4)cn23)cc1` [Example C25, 4-[2-(4-{3-[4-(propan-2-yloxy)phenyl]imidazo[1,2-a]pyridin-6-yl}phenoxy)ethyl]morpholine] the EC50 (LASV-p) was over 25 nM, the EC50 (MACV-p) was over 25 nM and the EC50 (JUNV-p) was at least 25 nM. It also gave an EC50 (TCRV-p) of over 25 nM.
`CC(C)Oc1ccc(-c2cnc3ccc(-c4ccc(C5(O)CNC5)cc4)cn23)cc1` [Example C29, 3-(4-{3-[4-(propan-2-yloxy)phenyl]imidazo[1,2-a]pyridin-6-yl}phenyl)azetidin-3-ol] showed an EC50 (LASV-p) of over 25 nM, an EC50 (MACV-p) of over 25 nM and an EC50 (JUNV-p) of over 25 nM. For the same compound, the EC50 (TCRV-p) was over 25 nM.
With `CC(C)Oc1ccc(-c2ccc3ncc(-c4ccc5c(c4)CCO5)n3c2)cc1` [Example C34, 3-(2,3-dihydro-1-benzofuran-5-yl)-6-[4-(propan-2-yloxy)phenyl]imidazo[1,2-a]pyridine] the EC50 (LASV-p) was 4.73 nM, the EC50 (MACV-p) was 25.1 nM and the EC50 (JUNV-p) was 3.68 nM. It also gave an EC50 (TCRV-p) of 16.5 nM.
With `CC(C)Oc1ccc(-c2ccc3ncc(-c4ccc(C(F)F)cc4)n3c2)cc1` [Example C36, 3-[4-(difluoromethyl)phenyl]-6-[4-(propan-2-yloxy)phenyl]imidazo[1,2-a]pyridine] the EC50 (LASV-p) was 8.18 nM, the EC50 (MACV-p) was over 25 nM and the EC50 (JUNV-p) was 23.2 nM. It also gave an EC50 (TCRV-p) of over 25 nM.
Work on `CC(C)Oc1ccc(-c2ccc3ncc(-c4ccc(OCCN5CCOCC5)cc4)n3c2)cc1` [Example C43, 4-[2-(4-{6-[4-(propan-2-yloxy)phenyl]imidazo[1,2-a]pyridin-3-yl}phenoxy)ethyl]morpholine] yielded an EC50 (LASV-p) of over 25 nM, an EC50 (MACV-p) of over 25 nM and an EC50 (JUNV-p) of over 25 nM. For the same compound, the EC50 (TCRV-p) was over 25 nM.
For `CC(C)Oc1ccc(-c2ccc3ncc(-c4ccc(C(=O)O)cc4)n3c2)cc1` [Example C45, 4-{6-[4-(propan-2-yloxy)phenyl]imidazo[1,2-a]pyridin-3-yl}benzoic acid], the EC50 (LASV-p) was over 25 nM, the EC50 (MACV-p) was over 25 nM and the EC50 (JUNV-p) was over 25 nM. It also gave an EC50 (TCRV-p) of over 25 nM.
`CC(C)Oc1ccc(-c2ccc3cnn(-c4ccc(OC(C)C)cc4)c3c2)cc1` [Example D1, 1,6-bis[4-(propan-2-yloxy)phenyl]-1H-indazole] gave an EC50 (LASV-p) of over 25 nM, an EC50 (MACV-p) of over 25 nM and an EC50 (JUNV-p) of 14 nM. It also gave an EC50 (TCRV-p) of over 25 nM.
`CC(C)Oc1ccc(-c2ccc3ccn(-c4ccc(OC(C)C)cc4)c3c2)cc1` [Example D4, 1,6-bis[4-(propan-2-yloxy)phenyl]-1H-indole] gave an EC50 (LASV-p) of over 25 nM, an EC50 (MACV-p) of 16.9 nM and an EC50 (JUNV-p) of 8.1 nM. It also gave an EC50 (TCRV-p) of over 25 nM.
Compound `CC(C)Oc1ccc(-c2ccc3occ(-c4ccc(OC(C)C)cc4)c3c2)cc1` [Example D8, 3,5-bis[4-(propan-2-yloxy)phenyl]-1-benzofuran] has an EC50 (LASV-p) of over 25 nM, an EC50 (MACV-p) of over 25 nM and an EC50 (JUNV-p) of over 25 nM. For the same compound, the EC50 (TCRV-p) was over 25 nM.
`CC(C)Oc1ccc(-c2coc3ccc(-c4ccc5[nH]ccc5c4)cc23)cc1` [Example D9, 5-{3-[4-(propan-2-yloxy)phenyl]-1-benzofuran-5-yl}-1H-indole] showed an EC50 (LASV-p) of over 25 nM, an EC50 (MACV-p) of over 25 nM and an EC50 (JUNV-p) of over 25 nM. For the same compound, the EC50 (TCRV-p) was over 25 nM.
For `CC(=O)c1ccc(-c2cnc3cnc(-c4ccc(OC(C)C)cc4)cn23)cc1` [Example D14, 1-(4-{6-[4-(propan-2-yloxy)phenyl]imidazo[1,2-a]pyrazin-3-yl}phenyl)ethan-1-one], the EC50 (LASV-p) was 6.77 nM, the EC50 (MACV-p) was 25 nM and the EC50 (JUNV-p) was 13.5 nM. For the same compound, the EC50 (TCRV-p) was 20.2 nM.
For `CC(C)Oc1ccc(-c2ccc3cnc(-c4ccc(OC(C)C)cc4)n3c2)cc1` [Example D17, 3,6-bis[4-(propan-2-yloxy)phenyl]imidazo[1,5-a]pyridine], the EC50 (LASV-p) was over 25 nM, the EC50 (MACV-p) was over 25 nM and the EC50 (JUNV-p) was over 25 nM. The EC50 (TCRV-p) was over 25 nM.
With `CCOC(=O)c1nc2ccc(-c3ccc(OC(C)C)cc3)cn2c1-c1ccc(OC(C)C)cc1` [Example D20, ethyl 3,6-bis[4-(propan-2-yloxy)phenyl]imidazo[1,2-a]pyridine-2-carboxylate] the EC50 (LASV-p) was over 25 nM, the EC50 (MACV-p) was over 25 nM and the EC50 (JUNV-p) was over 25 nM. For the same compound, the EC50 (TCRV-p) was over 25 nM.
Compound `CC(C)Oc1ccc(-c2ccc3nc(C(=O)O)c(-c4ccc(OC(C)C)cc4)n3c2)cc1` [Example D21, 3,6-bis[4-(propan-2-yloxy)phenyl]imidazo[1,2-a]pyridine-2-carboxylic acid] has an EC50 (LASV-p) of over 25 nM, an EC50 (MACV-p) of over 25 nM and an EC50 (JUNV-p) of over 25 nM. It also gave an EC50 (TCRV-p) of over 25 nM.
